Patent US4087603A, “Antifungal antibiotics” (priority 1976, dated 1978)

Columns and labels:
Acute toxicity in mice = type: in vivo
C. albicans A-26 = experiment: In vivo antifungal activity in X-irradiated mice infected intravenously with C. albicans A-26; details: Candida albicans, A26, light or radiation study, sc, C. albicans A-26 i.v. infection, sub-lethal X-irradiation 24 hours prior, read-out: average effective dose, ED50
Protocol: As previously mentioned, the compounds of this invention are effective systemic antifungal agents. When administered orally or parenterally, the antifungal compounds of this invention are effective in combatting systemic fungal infections for example, Candida albicans systemic infections. […] The tests in mice were carried out in the following manner. Two groups of mice, one a control group, were exposed to a sub-lethal dose of X-irradiation 24 hours prior to infection with C. albicans A-26. The mice were infected by intravenous administration of C. albicans cells.

Solubility = type: physicochemical
fungi = details: cited from earlier work
[1] = test system: systemic fungal infections; details: cited from earlier work

NC(=O)NC(CCC(N)C[C@H]1O[C@@H](n2cnc3c(N)ncnc32)[C@H](O)[C@@H]1O)C(N)=O (stereo partly drawn) [compound II, 5'-deoxy-5'-(1-amino-4-ureido-4-carboxyamidobutyl)adenosine]
acute toxicity (Acute toxicity in mice; dose of 400 mg./kg.): no acute toxicity was observed
ED50 (C. albicans A-26): ~21 mg/kg
solubility in water (Solubility): highly soluble

Nc1ncnc2c1ncn2[C@@H]1O[C@H](CC2CCC(N)C(=O)N2)[C@@H](O)[C@H]1O (stereo partly drawn) [compound I, 5'-deoxy-5'-(3-aminopiperidin-2-one-6-yl)adenosine]
acute toxicity (Acute toxicity in mice; mice, dose of about 1000 mg./kg.): no acute toxicity was observed
ED50 (C. albicans A-26): 38 mg/kg
solubility in acetone (Solubility; acetone): sparingly soluble
solubility in ethanol (Solubility; ethanol): sparingly soluble
solubility in methanol (Solubility): sparingly soluble
solubility in water (Solubility): highly soluble

Nc1ncnc2c1ncn2[C@@H]1O[C@H](CC(N)CC[C@H](N)C(=O)O)[C@@H](O)[C@H]1O (stereo partly drawn) [A-9145, 5'-deoxy-5'-(1,4-diamino-4-carboxybutyl)adenosine]
activity in vitro (known antibiotic) (fungi): active both in vitro and in vivo
solubility in methanol (Solubility): partially soluble
activity in vivo (known antibiotic) [1]: active both in vitro and in vivo
